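Results reflect a 48-hour exposure of cells in 96-well plates to compound at five concentrations. GI50: concentration for 50% inhibition of growth. TGI marks complete inhibition of growth.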
The compounds below were run on NCI/ADR-RES ovarian (assay: NCI anticancer screen, dose series, 48 h).

Row | Compound | TGI [µM]
1 | O=C(O)C1C2CCC(O2)C1C(=O)Nc1cccc2cccnc12 (centres undefined) | > 100
2 | COc1cccc2c1Cc1cc(-c3ccccc3)[n+](C)n1-2 | > 100
3 | O=C(C[n+]1ccc2ccccc2c1)c1ccc2ccc3ccccc3c2c1 | 32.7
4 | NCCCCc1cc(O)c2c(c1O)C(=O)c1ccccc1C2=O | 30.5
5 | Cc1ccccc1C(=O)N/N=C/c1ccc(Sc2nccn2C)c([N+](=O)[O-])c1 | > 100
6 | CCn1c(-c2ccc(N=NNc3ccc(-c4n[nH]c(=S)n4CC)cc3)cc2)n[nH]c1=S | > 100
7 | CC(=O)C1=C(C)N(c2ccc(C)cc2)C2(O)C=CC(=O)C3C(=O)N(c4ccccc4)C(=O)C132 (centres undefined) | > 100
8 | COc1ccc2c(c1)[nH]c1c(/C=C/c3ccccc3)nccc12 | 37.9
9 | Clc1cc2c(cc1Cl)CC(NCCN1CCCC1)CC2 (centres undefined) | 27.8
10 | CCN(CC(=O)O)C(=O)c1cccnc1 | > 100
11 | NCCSC(c1ccccc1)c1ccccc1 | > 100
12 | COc1nc(C#CC2(O)CCCCC2)nc(OC)n1 | 68.9
13 | C[C@H](CCC(=O)O)[C@H]1CC[C@@]2(C)[C@@H]3C(=O)C[C@H]4C(C)(C)[C@@H](O)CC[C@]4(C)[C@H]3C(=O)C[C@]12C | > 100

The compounds below were run on UACC-62 melanoma (assay: NCI anticancer screen, dose series, 48 h).

Row | Compound | TGI [µM] | GI50 [µM]
14 | CCOC(=O)C1=NN(c2ccc(C)cc2)C2=CC(C)=NN(C)C(=S)N21 | > 100 | 
15 | O=C(c1cccs1)N(C(=S)OC12CC3CC(CC(C3)C1)C2)c1ccccc1 | 84.8 | 
16 | C(=N\NC1=NCCN1)/c1ccc(-c2cn3cc(/C=N/NC4=NCCN4)ccc3n2)cc1 | > 100 | 
17 | CC1CC[C@@]2(OC1)OC1C[C@H]3[C@@H]4CC=C5CC(OC6OC(CO)C(OC7OC(CO)C(O)C(OC8OCC(O)C(O)C8O)C7OC7OC(CO)C(O)C(O)C7O)C(O)C6O)CCC5(C)[C@H]4CCC3(C)C1[C@@H]2C (some centres undefined) | > 25 | 
18 | Nc1ccccc1S(=O)(=O)c1ccccc1 | > 100 | 
19 | Cc1c(N2C(=O)CS(=O)(=O)C2c2cccc(Oc3ccccc3)c2)c(=O)n(-c2ccccc2)n1C (centres undefined) | > 100 | 
20 | COc1cc2c(ccc3c4cc(OC)c(OC)cc4c[n+](C)c23)cc1O | 11.5 | 
21 | CNC(=O)OCc1c(CO)nc(SC)n1C | > 100 | 
22 | CN(C)CC(CC1=C(CC(CN(C)C)N(C)C)CCC1)N(C)C (centres undefined) | > 100 | 
23 | CCC1CN(C(=O)c2ccccc2)C(Cc2c[nH]c3ccccc23)C(=O)C1CC(=O)OC (centres undefined) | > 100 | 
24 | CC12CC3OC(=O)C1COC14OC5(C2C1=O)C(O)(CCC1C4CC(O)C2(O)CC=CC(=O)C12C)C(=O)OC35C (centres undefined) | > 100 | 
25 | NC(=O)c1c(NC(=O)c2ccccn2)sc2c1CCC(=O)C2 | 67.1 | 2.52
26 | O=c1cccccc1[O-].O=c1cccccc1[O-].[O]=[U+2]=[O] | 41.6 | 
27 | COc1ccc(C(=O)/C=C/c2cccc([N+](=O)[O-])c2)c(OC)c1 | 2.79 | 1.14
28 | CCOC(=O)C(NC(=O)c1ccco1)(Nc1nc2ccc(OCC)cc2s1)C(F)(F)F (centres undefined) | > 100 | 
29 | CCC(C)C1=C(OC(C)=O)[N+]2([O-])Oc3ccc(-c4c(OC(C)=O)c(OC(C)=O)c(-c5ccc(OC(C)=O)cc5)c(OC(C)=O)c4OC(C)=O)cc3OC2(C(C)CC)C(=O)N1OC(C)=O (centres undefined) | 16.7 | 

Row | Compound | TGI [µM] | GI50 [µM]
30 | O=C(O)C1C2CCC(O2)C1C(=O)Nc1cccc2cccnc12 (centres undefined) | > 100 | 
31 | COc1cccc2c1Cc1cc(-c3ccccc3)[n+](C)n1-2 | 30.3 | 
32 | O=C(OCN1C(=O)C2C3C=CC(C2C1=O)C1C2C(=O)N(COC(=O)C4CCCN4)C(=O)C2C31)C1CCCN1 (centres undefined) | > 100 | 
33 | O=C(C[n+]1ccc2ccccc2c1)c1ccc2ccc3ccccc3c2c1 | 9.72 | 
34 | NCCCCc1cc(O)c2c(c1O)C(=O)c1ccccc1C2=O | 32.6 | 
35 | Cc1ccccc1C(=O)N/N=C/c1ccc(Sc2nccn2C)c([N+](=O)[O-])c1 | > 100 | 
36 | CC(=O)C1=C(C)N(c2ccc(C)cc2)C2(O)C=CC(=O)C3C(=O)N(c4ccccc4)C(=O)C132 (centres undefined) | 35.6 | 
37 | COc1ccc2c(c1)[nH]c1c(/C=C/c3ccccc3)nccc12 | 28.9 | 
38 | Clc1cc2c(cc1Cl)CC(NCCN1CCCC1)CC2 (centres undefined) | 8.15 | 
39 | [N-]=[N+]=CC(=O)c1ccccc1C#CCCc1ccccc1 | 69.8 | 
40 | CCN(CC(=O)O)C(=O)c1cccnc1 | > 100 | 
41 | NCCSC(c1ccccc1)c1ccccc1 | 31.3 | 
42 | CCCCCCCCC/C=C/C=C/C(=O)NCC(=O)NC1C(O)C(O)C(Nc2ncnc3nc[nH]c23)OC1C(O)CO (centres undefined) | 0.0171 | 
43 | COc1nc(C#CC2(O)CCCCC2)nc(OC)n1 | 20.2 | 
44 | C[C@H](CCC(=O)O)[C@H]1CC[C@@]2(C)[C@@H]3C(=O)C[C@H]4C(C)(C)[C@@H](O)CC[C@]4(C)[C@H]3C(=O)C[C@]12C | > 100 | 

What follows are compounds tested on SN12C renal (assay: NCI anticancer screen, dose series, 48 h).

Row | Compound | TGI [µM] | GI50 [µM]
45 | CCOC(=O)C1=NN(c2ccc(C)cc2)C2=CC(C)=NN(C)C(=S)N21 | > 100 | 
46 | O=C(c1cccs1)N(C(=S)OC12CC3CC(CC(C3)C1)C2)c1ccccc1 | 89.8 | 
47 | C(=N\NC1=NCCN1)/c1ccc(-c2cn3cc(/C=N/NC4=NCCN4)ccc3n2)cc1 | > 63.1 | 
48 | CC1CC[C@@]2(OC1)OC1C[C@H]3[C@@H]4CC=C5CC(OC6OC(CO)C(OC7OC(CO)C(O)C(OC8OCC(O)C(O)C8O)C7OC7OC(CO)C(O)C(O)C7O)C(O)C6O)CCC5(C)[C@H]4CCC3(C)C1[C@@H]2C (some centres undefined) | 8.27 | 
49 | Nc1ccccc1S(=O)(=O)c1ccccc1 | > 100 | 
50 | Cc1c(N2C(=O)CS(=O)(=O)C2c2cccc(Oc3ccccc3)c2)c(=O)n(-c2ccccc2)n1C (centres undefined) | > 100 | 
51 | COc1cc2c(ccc3c4cc(OC)c(OC)cc4c[n+](C)c23)cc1O | 22.1 | 
52 | CNC(=O)OCc1c(CO)nc(SC)n1C | > 100 | 
53 | CN(C)CC(CC1=C(CC(CN(C)C)N(C)C)CCC1)N(C)C (centres undefined) | > 100 | 
54 | CCC1CN(C(=O)c2ccccc2)C(Cc2c[nH]c3ccccc23)C(=O)C1CC(=O)OC (centres undefined) | > 100 | 
55 | CC12CC3OC(=O)C1COC14OC5(C2C1=O)C(O)(CCC1C4CC(O)C2(O)CC=CC(=O)C12C)C(=O)OC35C (centres undefined) | > 100 | 
56 | O=c1cccccc1[O-].O=c1cccccc1[O-].[O]=[U+2]=[O] | 63.2 | 27.2
57 | COc1ccc(C(=O)/C=C/c2cccc([N+](=O)[O-])c2)c(OC)c1 | 2.99 | 1.18
58 | CCOC(=O)C(NC(=O)c1ccco1)(Nc1nc2ccc(OCC)cc2s1)C(F)(F)F (centres undefined) | > 100 | 
59 | CCC(C)C1=C(OC(C)=O)[N+]2([O-])Oc3ccc(-c4c(OC(C)=O)c(OC(C)=O)c(-c5ccc(OC(C)=O)cc5)c(OC(C)=O)c4OC(C)=O)cc3OC2(C(C)CC)C(=O)N1OC(C)=O (centres undefined) | > 50 | 
60 | O=C(O)C1C2CCC(O2)C1C(=O)Nc1cccc2cccnc12 (centres undefined) | > 100 | 
